According to the METLIN SMRT retention time set (Domingo-Almenara et al. 2019):

Experiment: gradient 5% acetonitrile 3 min, to 50% in 2 min, to 85% in 15 min, held 3 min, 100 µL/min
Conditions: column: Zorbax Extend-C18 2.1 x 50 mm; eluents: water / acetonitrile, 0.1% formic acid
Method in brief: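 The mobile phases were water and acetonitrile, each with 0.1% formic acid, pumped at 100 μL/min through a Zorbax Extend-C18 column (2.1 × 50 mm, 1.8 μm). Pure standards were injected as mixtures of ~100 molecules and detected by a quadrupole time-of-flight mass spectrometer in positive and negative ionization mode. Retention time came from computationally picked adduct peaks, each inspected by hand.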

RP-LC retention time [s]	Compound
782	COc1ccccc1CCC(=O)N1C[C@@H]2C[C@H](NC(=O)c3cccs3)[C@H]1C2
1200	Cc1ccc(S(=O)(=O)c2cnc(N3CCN(c4ccccc4F)CC3)nc2N)cc1C
670	CCCC(NC(=O)c1ccc2c(c1)OCO2)C(=O)Nc1nc2ccccc2[nH]1 (configuration not stated)
1100	COc1cccc(-c2nc(C3CCN(S(=O)(=O)c4ccc(F)cc4)CC3)no2)c1
968	CCOc1cccc(C2c3[nH]c4ccccc4c3CCN2C(=O)c2cccnc2)c1 (configuration not stated)
610	Cc1cccc(NC(=O)N2CCC(N3CCN(Cc4ccccn4)C(=O)C3=O)CC2)c1
586	O=C(NCCN1CCN(C(=O)c2cccs2)CC1)Nc1ccc(C(F)(F)F)cc1
952	COc1ccc(NC(=O)Cn2c(C)cc(-c3nnc(-c4ccc(F)cc4)o3)c2C)cc1
840	CCOC(=O)C1C(=O)C=C(c2cccc(NS(C)(=O)=O)c2)CC1c1ccccc1F (configuration not stated)
668	O=C(Cn1nc2c3ccc(F)cc3ncn2c1=O)NCc1ccc(F)cc1
722	NC(=O)c1nc(-c2ccccc2F)n2c1CCCCC2
632	CC(C)Cn1nc(CNC(=O)CSc2ccncc2)c2ccccc21
960	Cc1ccc(CNC(=O)C2CCN(c3ncccc3S(=O)(=O)N3CCCCC3)CC2)cc1
742	O=C(Nc1ccccc1)N1CCC(n2cnc3cc(F)ccc3c2=O)CC1
586	Cc1nc2cc(N3CCCC(C(=O)NCc4ccc(N(C)C)cc4)C3)cnc2nc1C (configuration not stated)
711	O=C(CN1c2ccc(F)cc2-c2ccccc2S1(=O)=O)N1CCN(Cc2ccccc2)CC1
718	CC(C(O)c1ccc(O)cc1)N1CCC(Cc2ccccc2)CC1 (configuration not stated)
883	CNC(=O)C1CCCN(C(=O)Nc2ccc(NC(=O)Nc3ccc(C)cc3)cc2)C1 (configuration not stated)
985	C=CCN(CC=C)S(=O)(=O)c1ccc(C(=O)N2CCCc3ccccc32)cc1
660	O=C(CSc1ccc(N2CCCC(C(=O)NC3CC3)C2)nn1)Nc1ccc(F)c(Cl)c1 (configuration not stated)
695	CCNC(=O)c1cc(-c2ccc(F)cc2)n[nH]1
855	Cc1ccc(Cn2c(=O)n(CCNC(=O)CC(C)(C)C)c3ncccc32)cc1
718	COc1cccc(S(=O)(=O)NCc2cccnc2-c2cccc(C)c2)c1

RP-LC retention time [s]	Compound
922	CCC1Oc2ccc(S(=O)(=O)N3CCC(C(=O)Nc4ccc(F)cc4C)CC3)cc2NC1=O (configuration not stated)
947	O=C(Cn1nc2c3cc(-c4ccccc4)nn3ccn2c1=O)Nc1ccc(Br)cc1
1250	O=C(NC1(c2nc(-c3ccccc3)no2)CCCCC1)c1ccc(C(F)(F)F)cc1
832	O=C(Cn1cccc(-c2nc(-c3ccc(F)cc3)no2)c1=O)Nc1ccc2c(c1)OCCO2
947	Cc1ccc(N2C(=O)Cn3cccc3C2C(=O)NC2CCCCC2C)cc1 (configuration not stated)
632	O=C(NCc1cccnc1)c1cc2cc(Cl)ccc2[nH]1
1050	O=C(NCc1cccc(Br)c1)C1CCCN(c2nccnc2Oc2ccccc2)C1 (configuration not stated)
806	CS(=O)(=O)Nc1ccc(C2(C(=O)NCc3ccco3)CCCCC2)cc1
621	O=C(CN1C(=O)CCc2cc(Br)ccc21)N1CCN(c2ccccn2)CC1
933	CCCn1c(-c2cccc(C(=O)NCc3ccc(C(F)(F)F)cc3)c2)nc2cccnc21
622	O=C(c1nc2ccccn2c1-c1ccsc1)N1CCCC1
808	O=C(Nc1ccc(N2CCN(C3CCCCC3)C2=O)nc1)c1ccc2c(c1)OCO2
831	COc1cccc(NC(=O)N2CC(c3nc(Cc4ccccc4)no3)C2)c1OC
861	Cc1ccc(CNC(=O)N2CC(Oc3ccc(-c4nc(C)no4)cc3)C2)cc1
699	Cc1cc2n(n1)CCCN2C(=O)CCC(=O)N1CCc2ccccc2C1
841	COc1ccc(CNC(=O)Cc2nnc(-c3ccc4ncccc4c3)o2)c(OC)c1
575	COCCCNC(=O)CN1CCN(c2cc(C(=O)O)c3cc(NC(=O)C4CCCC4)ccc3n2)CC1
939	CC(C)c1ccc(NC(=O)C2CCCN(S(=O)(=O)c3c[nH]c(C(=O)N4CCCC4)c3)C2)cc1 (configuration not stated)
642	O=C(NCCN1CCOCC1)C1CCN(S(=O)(=O)c2ccc(-c3noc(C4CC4)n3)cc2)CC1
975	Cc1ccccc1-c1nnc(COc2ccc(NC(=O)c3n[nH]c4c3CCCC4)cc2)o1
798	CC1=C(c2ccc(F)cc2)S(=O)(=O)N=C1N1CCC(C(=O)NC2CCCC2)CC1
651	Cc1ccc2c(Nc3ccc(Cl)c(F)c3)c(C(=O)N3CCSCC3)cnc2n1
640	CC(C)n1c(CN2CCOCC2)nc2cc(NC(=O)c3cccs3)ccc21

Continued, compound first:

Compound	RP-LC retention time [s]
CCOc1cc(C(=O)Nc2c(-c3ccc(F)cc3)nc3ccccn23)cc(OCC)c1OCC	788
COC(=O)c1ccc2c(=O)n(-c3ccc4c(c3)OCO4)c(N3CCC(C)CC3)nc2c1	1150
CC(C)c1nc(-c2ccc([N+](=O)[O-])cc2)cs1	1120
Cc1cc(C)cc(NS(=O)(=O)c2c(C)sc(C)c2-c2cc(C(F)(F)F)on2)c1	1240
c1ccc(-c2noc(N3CCN(c4ccccn4)CC3)n2)cc1	668
CCc1noc(NC(C)=O)c1-c1ccc(OC)c(S(=O)(=O)NC(C)CC)c1 (configuration not stated)	746
Cc1nc2c(sc3nc(-c4ccccc4)ccc32)c(=O)n1CC(=O)Nc1ccccc1C(F)(F)F	1070
O=C1CCN(C(=O)C2CCN(C(=O)NC3CCCCC3)CC2)CCCCCCN1	664
Cc1ccc(-c2noc(Cn3c(=O)n(CC4CCCO4)c(=O)c4ccccc43)n2)cc1 (configuration not stated)	1040
CC(C)CCN(C1CCOCC1)C1CCN(C(=O)Nc2cccc(F)c2)CC1	650
COc1ccc(C)c2sc(N(CCN(C)C)C(=O)c3cnn(-c4ccccc4)c3C)nc12	632
COCCOC1CCC12CCN(Cc1ccccc1C#N)CC2 (configuration not stated)	610
COC(=O)CN1CN(c2ccccc2)C2(CCN(Cc3cccc4ccccc34)CC2)C1=O	729
COc1cc(CC(=O)N2CCN(c3cc(C(C)C)n4cnnc4n3)CC2)cc(OC)c1	635
CCCn1c(C)cnc1CC1CCN(S(=O)(=O)c2ccc3c(c2)OCCO3)CC1	560
CCOc1ccc(-c2cn3ccn(-c4ccc(OCC)cc4)c(=O)c3n2)cc1	896
CCOC(=O)c1noc2nc(C)nc(NCCCN3CCN(c4cc(Cl)ccc4C)CC3)c12	948
O=C(COc1cccc(Cl)c1)Nc1nc(-c2ccc(Br)cc2)cs1	1260
Cn1cc(CCNC(=O)c2cncc(Br)c2)c2cccnc21	638
COc1ccc(-n2ncc3c(=O)n(Cc4nc(-c5cccc(OC)c5)no4)cnc32)cc1	984
COc1ccc(C)cc1NC(=O)NCC(c1cccnc1)c1cn(C)c2ccccc12 (configuration not stated)	734

Compound	RP-LC retention time [s]
Cc1cc(C(F)(F)F)nn1CC(=O)NCC1Cn2cccc2C(=O)N1CC(C)C (configuration not stated)	797
CCOC(=O)c1c(CN2CCN(CCO)CC2)n(C)c2cc(Br)c(OC(C)=O)cc12	679
CC(C)C(=O)N1CCc2ccc([N+](=O)[O-])cc2C1	728
CSc1ccc(-c2nc3cccc(C)n3c2Nc2ccc3c(c2)OCCO3)cc1	719
CCc1nncn1C1CCN(C(=O)c2cc(-c3cccs3)[nH]n2)C1 (configuration not stated)	595
CCOc1cccc(-c2noc(-c3nn(-c4ccc(OC)cc4)ccc3=O)n2)c1	938
COCC(C)(O)CNC(=O)C(=O)Nc1ccccc1C#N (configuration not stated)	629
CC1(C(=O)N2CC(F)(F)C[C@H]2c2nc(-c3ccncc3)no2)CC1	735
Cc1ccnc(N2CCCC(C(=O)N3CCC(C(N)=O)(N4CCCCC4)CC3)C2)n1 (configuration not stated)	542
CCN(CC)C(=O)c1ccc2oc(CN3CCN(C(=O)NCC(C)C)CC3)nc2c1	624
CCOc1ccc(-c2noc(N3CCC(C(=O)Nc4cc(Cl)ccc4OC)CC3)n2)cc1OC	1090
CCOc1ccc(NC(=O)Cc2csc3nc(-c4ccc(C)c(C)c4)cn23)cc1	903
CCOc1ccccc1-c1noc(Cn2c(=O)n(CC(C)C)c(=O)c3ccccc32)n1	1150
Cc1nn(-c2nc3ccccc3[nH]2)c2c1C(=O)CC(c1cccs1)C2 (configuration not stated)	967
Cc1cccc(-n2nnc(C(=O)O)c2-c2ccncc2)c1	620
O=C(NC1CCN(c2cc(-c3cccs3)[nH]n2)C1)c1cccc2[nH]ccc12 (configuration not stated)	672
CC(=O)Nc1ccc(-n2c(C)nc3ccccc3c2=O)cc1C	621
COCc1cc(=O)n(CC(=O)Nc2cc(C)ccc2C)c(N)n1	631
O=C1[C@H]2CN(Cc3ccc(F)cc3Cl)C[C@H]2C(=O)N1Cc1ccc2c(c1)OCO2	992
O=C(O)c1nnn(-c2ccc3c(c2)OCCO3)c1-c1ccncc1	593
